One block for each compound: values may come before it.
What was measured:
C57BL6J mice = test: Intrarectal oxygenated perflubron in mice having respiratory failure, SpO2 monitor; format: in vivo; details: 15% hypoxic condition; 40 mL/kg into the rectum
Method: Experiment was carried out to administer oxygenated perflubron to mice having respiratory failure. PFB manufactured by OriGen Biomedical (Perflubron, product name: Liquivent) was oxygenated by oxygen bubbling. Male C57BL6J mice (male) ranging from 20 to 30 g were grouped into two groups: control group (physiological saline administration group); and I-EVA group (using oxygenated perflubron). The mice of the control group were each anesthetized by intraperitoneal administration of ketamine (80 to 100 mg/kg) and xylazine (10 mg/kg) and subjected to inhalation under 15% hypoxic condition, and, when SpO2 just exceeded 70%, perflubron was administered into the rectum at 40 mL/kg, and effects on respiratory failure were validated by using an SpO2 monitor.

[1] = Oxygen and carbon dioxide partial pressures of the PFB before bubbling, after bubbling and after intrarectal administration; parameters: species or system mice; details: after oxygen bubbling vs before
C57BL/6J mice [2] = test: Behavior analysis (walking distance) of ILV-treated hypoxic mice; format: in vivo; details: per 20 seconds; FiO2 0.10; 120 minutes after injection to the intestinal tract
Method: Behavioral improvement in ILV-treated hypoxic mice was analyzed. The mobilities of mice were monitored for a set of two parameters from a fitted ellipse (centroidal positions (x, y)). With use of these parameters, walking distance was calculated every 20 seconds for mice of a control group and a treated group (both n=3). […] For the treated group, an O2-labeled perfluorocarbon was used as described above, and inhalation of hypoxic gas (FiO2 0.10) was performed 120 minutes after the injection to the intestinal tract (FIG. 4A).

[3] = test system: acute respiratory distress syndrome (ARDS) pig model; test: Intrarectal oxygenated PFC in acute respiratory distress syndrome (ARDS) pig model; format: in vivo; details: ARDS pigs
Method: Furthermore, an acute respiratory distress syndrome (ARDS) pig model was produced, and improvement of oxygen partial pressure by intrarectal administration of oxygenated PFC was examined. First, micromini pigs and pork pigs (female) were used to produce an ARDS model. Physiological saline was directly administered into the airway at 40 mL/kg. […] Histological examination of lung tissue confirmed impairment of alveolar walls such as the formation of hyaline membranes, the formation of residual protein layers in alveolar spaces, and septal hypertrophy. […] Then, the thus-produced ARDS pigs were each subjected to laparotomy by median incision, and a drain for administration of perfluorodecalin was placed at a depth of 40 cm from the anus, and an […] DennisTM Colorectal Tube for recovery of perfluorodecalin was placed in the anus side.

[4] = Oxygen partial pressure of PFC bubbled with pure oxygen; format: physicochemical
Method: (§1) With use of a liquid perfluorocarbon (PFC)^12-16, an intestinal gas ventilation (ILV) system was developed. Mice were randomly assigned to two groups: sham group (group 9, n=10); and intestinal gas ventilation group (group 12, n=12). For the intestinal gas ventilation (ILV), a PFC (octadecafluorodecahydronaphthalene, Wako Pure Chemical Industries, Ltd., Osaka, Japan) was bubbled with pure oxygen for 45 minutes to dissolve oxygen therein.
First, an O2-containing PFC was prepared (by O2 bubbling at 1 L/min over 45 minutes; FIG. 3A). For mice (groups 12, 18, 19; hereinafter, referred to as intestinal gas ventilation (ILV) groups), the liquid of PFC was then infused into the intestinal tract (i.e., the rectum) in a total volume of 1 mL/mouse. The average oxygen pressure in the PFC after O2 bubbling for 45 minutes was 438±19.9 mmHg (n=3, FIG. 4E). Effects on the treated mice were evaluated by mobility assay. In summary, the walking distances of the mice were calculated to find statistical increase for the group with O2—PFC liquid infusion therapy after inhalation of hypoxic gas (the ILV group with administration of the O2-containing PFC) as compared with the control group (FiO2 0.10, control group, 0.408±1.02 cm per 20 seconds; FiO2 0.10, treated group, 3.34±4.05 cm, p<0.0001, FIG. 3B).

hypoxic pigs = test: Intrarectal oxygenated PFC in hypoxic pigs; format: in vivo; details: intrarectal administration
[5] = Systemic toxicity after six cycles of administration of PFD, analysis of serum; format: in vivo; details: for ALP / AST / Albumin / CK / Calcium / Chloride / Creatinine / Erythrocytes / Glucose / Hematocrit / Hemoglobin / Leukocytes / Platelets / Pottasium / Sodium / Total cholesterol / Tri-glyceride / Urea nitrogen / ALT: 6 doses (time/day), blood collection Day 2; for ALT: *p < 0.05
Method: (§2) The blood PDF concentration 0.5 hours, 2 hours, and 24 hours after administration of perfluorodecalin (PFD) was measured by GC/MS/MS at times (n=6). […] Systemic toxicity after six cycles of administration of PDF was examined.

mice = test: Oral administration of PFD subjected to oxygen bubbling, left ventricular blood gas; format: in vivo
Method: PFD subjected to oxygen bubbling was administered to mice through oral administration, and the effects on blood oxygen partial pressure and carbon dioxide partial pressure were examined. As a negative control, a mouse group with oral administration of physiological saline ([…]; n=3) was used. […] In the negative control group, in contrast to that, there were smaller amounts of contents in the intestinal tract than in the bubbled-PFD oral administration group (FIG. 14A). An attempt was made to recover contents by inserting a syringe into the intestinal tract. In the attempt, transparent liquid suspected to be PFD was successfully recovered in the syringe for the bubbled-PFD oral administration group (FIG. 14B). For the negative control group, by contrast, such liquid was not recovered, and nothing recovered was left in the syringe. […] One hour after administration, tracheostomy was performed, and ventilation was performed with room air under management with a ventilator. Thoracotomy was performed and blood was collected from the heart, and the oxygen partial pressure and carbon dioxide partial pressure in the blood obtained were measured by iSTAT.

C57BL/6J mice [6] = test: ILV in respiratory failure model, oxygen partial pressure in left ventricle (FiO2 0.10); format: in vivo
Method: In ILV experiment, mice were randomly assigned to two groups: sham group (group 13, n=4); and ILV groups (group 18, n=4; group 19, n=4). The PFC was given to each mouse via the intestinal tract in the above-described manner, and 60 minutes and 120 minutes thereafter the oxygen partial pressure in the left ventricle of the heart under inhalation of hypoxic gas was analyzed (FiO2 0.10, inhalation time: 10 minutes).

[7] = Blood PFD concentration by GC/MS/MS; format: in vivo; details: 0.5 hours, 2 hours, and 24 hours after administration, n=6
Method: as §2

C57BL/6J mice [8] = test: Intestinal liquid ventilation (ILV) with oxygenated PFC, oxygen partial pressure in inferior vena cava; format: in vivo; details: 120 min after 1 mL PFC via the intestinal tract
Method: as §1

LEWIS rats = test: Intrarectal oxygenated perfluorodecalin, blood gas (FIG. 9); format: in vivo; details: for blood oxygen partial pressure vs physiological saline: intrarectal 20 mL/kg
Method: As an experiment for reproduction, LEWIS rats (male) ranging from 250 to 350 g were grouped into three groups: control group; I-EVA group (using research-grade perfluorodecalin (PFD) from Wako Pure Chemical Industries, Ltd.); and I-EVA group (using clinical-grade perfluorodecalin from F2C). Perfluorodecalin bubbled with pure oxygen gas was administered into the rectum of each rat at 20 mL/kg, and 15 minutes and 120 minutes thereafter the arterial blood was collected under anesthesia and 21% oxygen inhalation, and the oxygen partial pressure was measured.
Next, C57BL6J mice ranging from 20 to 30 g were grouped into two group: control group (physiological saline administration group); and I-EVA group (using perfluorodecalin from F2C with oxygenation). The mice of the control group were each anesthetized by intraperitoneal administration of ketamine (80 to 100 mg/kg) and xylazine (10 mg/kg) and subjected to inhalation under 15% hypoxic condition, and, when SpO2 just exceeded 70%, oxygenated perfluorodecalin was administered into the rectum at 40 mL/kg, and effects on respiratory failure were validated by using an SpO2 monitor. After the completion of the experiment, the perfluorodecalin enterally administered was recovered, and the carbon dioxide concentration was measured to compare with that measured before the operation.

[9] = oral 250 μL/mouse, heart blood one hour after administration, room air ventilation
[10] = 120 minutes after administration

- oxygen partial pressure of the PFB [1]: enhanced oxygen partial pressure
Compound: FC(F)(F)C(F)(F)C(F)(F)C(F)(F)C(F)(F)C(F)(F)C(F)(F)C(F)(F)Br [PFB, 1-bromo-heptadecafluorooctane]
- SpO2 (C57BL6J mice): significant recovery of SpO2

- acidosis [3]: did not exhibit marked acidosis
- average oxygen pressure in the PFC ([4]; after O2 bubbling for 45 minutes (1 L/min), n=3): 438±19.9 mmHg
- average pressure of oxygen in the perfluorocarbon ([4]; bubbled with pure oxygen, after 120 minutes): 438±19.9 mmHg
- blood PFD concentration (detection limit) [7]: < 1 µg/mL
Compound: FC1(F)C(F)(F)C(F)(F)C2(F)C(F)(F)C(F)(F)C(F)(F)C(F)(F)C2(F)C1(F)F (stereo not shown) [PFD, octadecafluorodecahydronaphthalene]
- walking distance (C57BL/6J mice [2]): 3.34±4.05 cm
- oxygen partial pressure, improvement ([3]; oxygenated perfluorodecalin repeatedly at 20 mL/kg intrarectal): about 300 mmHg
- blood oxygen partial pressure (hypoxic pigs): improvement in blood oxygen partial pressure
- carbon dioxide partial pressure (hypoxic pigs): decrease in carbon dioxide partial pressure
- oxygen saturation (hypoxic pigs): improved the oxygen saturation
- ALP ([5]; PFD dose volume 1 ml/head): 470 ± 112 U/L
- AST ([5]; PFD dose volume 1 ml/head): 68 ± 2 U/L
- Albumin ([5]; PFD dose volume 1 ml/head): 2.6 ± 0.1 g/dL
- CK ([5]; PFD dose volume 1 ml/head): 170 ± 22 U/L
- Calcium ([5]; PFD dose volume 1 ml/head): 10.1 ± 0.1 mg/dL
- Chloride ([5]; PFD dose volume 1 ml/head): 103 ± 1 mmol/L
- Creatinine ([5]; PFD dose volume 1 ml/head): 0.2 mg/dL
- Erythrocytes ([5]; PFD dose volume 1 ml/head): 752 ± 24 ×10^4/μl
- Glucose ([5]; PFD dose volume 1 ml/head): 123 ± 22 mg/dL
- Hematocrit ([5]; PFD dose volume 1 ml/head): 45.0 ± 1.1%
- Hemoglobin ([5]; PFD dose volume 1 ml/head): 15.1 ± 0.7 g/dL
- Leukocytes ([5]; PFD dose volume 1 ml/head): 102 ± 18 10^2/μL
- Platelets ([5]; PFD dose volume 1 ml/head): 112 ± 11.5 10^4/µL
- Pottasium ([5]; PFD dose volume 1 ml/head): 3.6 ± 0.2 mmol/L
- Sodium ([5]; PFD dose volume 1 ml/head): 143 mmol/L
- Total cholesterol ([5]; PFD dose volume 1 ml/head): 75 ± 20 mg/dL
- Tri-glyceride ([5]; PFD dose volume 1 ml/head): 21 ± 7 mg/dL
- Urea nitrogen ([5]; PFD dose volume 1 ml/head): 14 ± 2 mg/dL
- ALT ([5]; PFD dose volume 1 ml/head): 24 ± 3* U/L
- ALP ([5]; PFD dose volume 1.5 ml/head): 540 ± 64 U/L
- AST ([5]; PFD dose volume 1.5 ml/head): 72 ± 5 U/L
- Albumin ([5]; PFD dose volume 1.5 ml/head): 2.6 ± 0.1 g/dL
- CK ([5]; PFD dose volume 1.5 ml/head): 196 ± 12 U/L
- Calcium ([5]; PFD dose volume 1.5 ml/head): 9.9 ± 0.3 mg/dL
- Chloride ([5]; PFD dose volume 1.5 ml/head): 105 ± 1 mmol/L
- Creatinine ([5]; PFD dose volume 1.5 ml/head): 0.3 ± 0.1 mg/dL
- Erythrocytes ([5]; PFD dose volume 1.5 ml/head): 791 ± 24 ×10^4/μl
- Glucose ([5]; PFD dose volume 1.5 ml/head): 123 ± 18 mg/dL
- Hematocrit ([5]; PFD dose volume 1.5 ml/head): 45.6 ± 1.4%
- Hemoglobin ([5]; PFD dose volume 1.5 ml/head): 15.2 ± 0.6 g/dL
- Leukocytes ([5]; PFD dose volume 1.5 ml/head): 88 ± 5 10^2/μL
- Platelets ([5]; PFD dose volume 1.5 ml/head): 124 ± 20.1 10^4/µL
- Pottasium ([5]; PFD dose volume 1.5 ml/head): 3.6 ± 0.2 mmol/L
- Sodium ([5]; PFD dose volume 1.5 ml/head): 143 ± 1 mmol/L
- Total cholesterol ([5]; PFD dose volume 1.5 ml/head): 71 ± 22 mg/dL
- Tri-glyceride ([5]; PFD dose volume 1.5 ml/head): 20 ± 4 mg/dL
- Urea nitrogen ([5]; PFD dose volume 1.5 ml/head): 14 ± 2 mg/dL
- ALT ([5]; PFD dose volume 1.5 ml/head): 25 ± 1* U/L
- toxicity due to intrarectal administration ([5]; six cycles of administration, serum analysis): no particular toxicity
- gastrointestinal transit after oral administration (mice; oral 250 μL/mouse to the stomach by probe): passed through the stomach and arrived at the intestine
- blood carbon dioxide partial pressure vs negative control group (mice; [9]): tendency to exhibit decreased blood carbon dioxide partial pressure
- blood oxygen partial pressure vs negative control group (mice; [9]): tendency to exhibit increased blood oxygen partial pressure
- ratio of arterial oxygen partial pressure between the control group and the treated group (C57BL/6J mice [6]; FiO2 0.10): approximately 1.6
- ventricular (arterial) oxygen partial pressure, PaO2 (C57BL/6J mice [6]; ILV group, hypoxic environment (FiO2 0.10)): 63.8±5.59 mmHg
- oxygen partial pressure in the left ventricle of the heart vs control group (C57BL/6J mice [6]; hypoxic environment (FiO2 0.10), 60 minutes after ILV): significantly higher
- oxygen partial pressure in the left ventricle of the heart, pressure difference ILV group vs control group (C57BL/6J mice [6]; hypoxic environment (FiO2 0.10), after 120 minutes): 23.8±3.11 mmHg
- oxygen partial pressure in the inferior vena cava, pressure difference ILV group vs control group (C57BL/6J mice [8]): 9.40±3.65 mmHg
- blood carbon dioxide partial pressure vs physiological saline (LEWIS rats; [10]): significantly decreasing blood carbon dioxide partial pressure
- blood oxygen partial pressure vs physiological saline (LEWIS rats; 15 minutes after administration): enhancing blood oxygen partial pressure
- blood oxygen partial pressure vs physiological saline (LEWIS rats; [10]): enhancing blood oxygen partial pressure

Source: patent publication US20230191096A1, “PHARMACEUTICAL COMPOSITION FOR USE IN TREATING SUBJECT IN HYPOXIC STATE DUE TO RESPIRATORY FAILURE, ETC” (National University Corporation Tokyo Medical and Dental …, priority 2020, published 2023)
